Measured values from paper PMC11877530, “Heterologous Expression and Characterization of Estercin A, a Class II Lanthipeptide Derived from Clostridium estertheticum CF016, with Antimicrobial Activity against Clinically Relevant Pathogens” (Journal of Natural Products, 2025).
In brackets after ≈: the same amount, converted by molar mass.

Experiments:
[1] = test system: L. lactis MG1363; assay: Time killing assay; assay type: cell-based, Lactococcus lactis; details: L. lactis MG1363, 5 × 10^5 CFU/mL, 10-fold the MIC, GM17, 30 °C, CFU counts, triplicate
Description: Time-killing assays were conducted according to the previously described protocol.[57] Briefly, an overnight culture of L. lactis MG1363 was diluted 50-fold in GM17 and incubated at 30 °C. The cells were grown for about 3 h to an OD600 of 0.5, and then the cell concentration was adjusted to 5 × 10^5 CFU/mL. […] Untreated cells were used as a control. At predetermined time points, 50 μL was taken from each sample, and undiluted and 10-fold serially diluted suspensions were plated on GM17 agar plates. After the overnight incubation at 30 °C, the colonies on the plates were counted and then calculated as the colony-forming units per milliliter. The experiment was carried out in triplicate.

[2] = Thermal stability (remaining antimicrobial activity); assay type: physicochemical; details: 4 h at 95 °C; read-out antimicrobial activity on L. lactis MG1363 agar; three biological replicates
[3] = test system: Clostridium perfringens CECT376; details: Reinforced Clostridium Medium, Coy Anaerobic Chamber, 18 h, 37 °C, three biological replicates
[4] = test system: Enterococcus faecalis LMG16216 (VRE); details: LMG16216, 18 h
[5] = test system: Staphylococcus aureus LMG10147; details: LMG10147, 18 h
[6] = test system: Enterococcus faecium LMG16003 (VRE); details: LMG16003, 18 h
[7] = test system: Listeria monocytogenes LMG10470; details: LMG10470, 18 h
[8] = test system: Gram-positive strains; assay type: cell-based
[9] = pH stability (remaining antimicrobial activity); details: pH 2, 4, 7 or 10 adjusted with HCl or NaOH; read-out antimicrobial activity on L. lactis MG1363 agar; three biological replicates
[10] = Spot-on-lawn-based lipid II binding (competition) assay; set-up: species or system Lactococcus lactis; details: spot-on-lawn on L. lactis MG1363 GM17 agar; estercin A 8 μg spotted adjacent to lipid II (300 μM, 3 μL); nisin positive, daptomycin negative control
Description: The binding of the peptides to pure lipid II ([…]) was tested by the spot-on-the- lawn assay. Here, nisin and daptomycin were used for comparison.[51]

[11] = test system: Lactococcus lactis MG1363; details: 18 h
[12] = test system: Bacillus cereus ATCC14579; details: ATCC14579, 18 h
[13] = test system: Clostridium botulinum CECT551; details: Reinforced Clostridium Medium, Coy Anaerobic Chamber, 18 h, 37 °C, three biological replicates
[14] = test system: L. lactis MG1363; assay: Fluorescence microscopy assay (SYTO-9/PI) for membrane pore formation; assay type: cell-based, Lactococcus lactis; details: L. lactis MG1363, peptide at 2-fold MIC, SYTO-9 and 5 μM PI, 15 min room temperature
Description: An overnight culture of L. lactis MG1363 was added to the GM17 broth to a final concentration of 1% (v/v) and grown to an OD600 of 0.8. The culture was centrifuged at 6,000 rpm for 5 min and washed three times in the MHB medium. […] Simultaneously, 5 μM PI and SYTO 9 were added to the samples. After incubation at room temperature for 15 min, the samples were centrifuged, and the supernatant was removed. And the cells were washed three times with MHB. After that, the harvest cells were loaded on 1.5% agarose pads and analyzed by a DeltaVision Elite microscope (Applied Precision).

[15] = test system: Staphylococcus aureus LMG15975 (MRSA); details: LMG15975, 18 h
[16] = test system: Clostridium tetani CECT4629; details: Reinforced Clostridium Medium, Coy Anaerobic Chamber, 18 h, 37 °C, three biological replicates
[17] = test system: C. perfringens; details: reported value, ref not given; cited from earlier work

Compound: C=C1NC(=O)[C@H](C(C)C)NC(=O)C2CSC[C@@H](C(=O)N[C@@H](CCCCN)C(=O)O)NC(=O)[C@H](CSC(C)C3NC(=O)[C@H](Cc4ccccc4)NC(=O)C(NC(=O)[C@@H](NC(=O)[C@@H](NC(=O)[C@@H](NC(=O)CNC(=O)CNC(=O)CN)C(C)C)[C@@H](C)CC)[C@@H](C)O)C(C)SC[C@H](NC(=O)[C@H](CCC(=O)O)NC(=O)[C@H](Cc4c[nH]cn4)NC3=O)C(=O)N[C@@H](Cc3ccc(O)cc3)C(=O)N[C@@H](Cc3ccc(O)cc3)C(=O)N[C@@H](CC(N)=O)C(=O)N2)NC(=O)CNC(=O)CNC(=O)[C@H](Cc2c[nH]c3ccccc23)NC(=O)[C@H](CO)NC(=O)[C@H](C)NC(=O)[C@@H]2CCCN2C1=O (some centres unmarked) [estercin A]
- Rate of killing [1]: slower rate of killing
- Reduction of antimicrobial activity after 95 °C exposure [2]: less than 30%
- MIC [3]: 1 µg/mL (≈ 0.363 µM)
- MIC [4]: 64 µg/mL (≈ 23.2 µM)
- MIC [5]: 16 µg/mL (≈ 5.81 µM)
- MIC [6]: 64 µg/mL (≈ 23.2 µM)
- MIC [7]: >64 µg/mL
- Antimicrobial activity against selected Gram-positive strains [8]: broad spectrum of activity
- pH stability: activity retained after incubation [9]: retained most of their activity
- Lipid II binding [10]: binds to lipid II
- MIC [11]: 4 µg/mL (≈ 1.45 µM)
- MIC [12]: 8 µg/mL (≈ 2.91 µM)
- MIC [13]: 32 µg/mL (≈ 11.6 µM)
- Membrane pore-forming ability [14]: cannot form pores on the membrane of target cells
- MIC [15]: 4 µg/mL (≈ 1.45 µM)
- MIC [16]: 4 µg/mL (≈ 1.45 µM)

Compound: ruminococcin A
- MIC [17]: 75 µg/mL
